What was measured:
[1] = system: S. aureus UBMS 90-1 (tetM); assay: MIC, agar dilution; assay type: cell-based; conditions: S. aureus UBMS 90-1 TetM; Table IA; unit assumed
[2] = system: E. coli MC4100 TetB; assay: MIC, agar dilution (Table IA); assay type: cell-based; conditions: unit assumed
[3] = system: S. aureus UBMS 90-2 (tetM); assay: MIC, agar dilution; assay type: cell-based; conditions: S. aureus UBMS 90-2 TetM; Table IA; unit assumed
[4] = system: S. aureus NEMC 8769/89-4; assay: MIC, agar dilution (Table IA); assay type: cell-based; conditions: unit assumed
[5] = system: X. maltophilia NEMC 87210; assay: MIC, agar dilution (Table IA); assay type: cell-based; conditions: unit assumed
[6] = system: E. coli PRP1 TetA; assay: MIC, agar dilution (Table IA); assay type: cell-based; conditions: unit assumed
[7] = system: S. aureus UBMS 88-7 (tetK); assay: MIC, agar dilution; assay type: cell-based; conditions: S. aureus UBMS 88-7 TetK; Table IA; unit assumed
[8] = system: E. coli UBMS 90-4 (tetM); assay: MIC, agar dilution; assay type: cell-based; conditions: E. coli UBMS 90-4 TetM; Table IA; unit assumed
[9] = system: S. aureus UBMS 88-4 (Sensitive); assay: MIC, agar dilution; assay type: cell-based; conditions: S. aureus UBMS 88-4; Table IA; unit assumed
[10] = system: S. haemolyticus AVAH 88-3; assay: MIC, agar dilution; assay type: cell-based; conditions: S. hemolyticus AVHAH 88-3; Table IA; unit assumed
[11] = system: E. coli UBMS 90-5; assay: MIC, agar dilution (Table IA); assay type: cell-based; conditions: unit assumed
[12] = system: E. coli UBMS 89-1 (tetM); assay: MIC, agar dilution; assay type: cell-based; conditions: E. coli UBMS 89-1 TetM; Table IA; unit assumed
[13] = system: S. aureus ATCC 29213 (Sensitive); assay: MIC, agar dilution; assay type: cell-based; conditions: S. aureus ATCC 29213; Table IA; unit assumed
[14] = system: E. coli #311 (MP); assay: MIC, agar dilution (Table IA); assay type: cell-based; conditions: unit assumed
[15] = system: E. coli UBMS 88-1 (tetB); assay: MIC, agar dilution; assay type: cell-based; conditions: E. coli UBMS 88-1 TetB; Table IA; unit assumed
[16] = system: E. coli J3272 Tet sens.; assay: MIC, agar dilution (Table IA); assay type: cell-based; conditions: unit assumed
[17] = system: E. coli UBMS 89-2 (Sensitive); assay: MIC, agar dilution; assay type: cell-based; conditions: E. coli UBMS 89-2 Tet Sens.; Table IA; unit assumed
[18] = system: S. aureus IVES 2943 (meth. resistant); assay: MIC, agar dilution; assay type: cell-based; conditions: S. aureus IVES 2943; Table IA; unit assumed
[19] = system: E. faecalis 12201; assay: MIC, agar dilution; assay type: cell-based; conditions: Enterococcus 12201; Table IA; unit assumed
[20] = system: S. aureus Smith (Sensitive); assay: MIC, agar dilution; assay type: cell-based; conditions: S. aureus SMITH (MP); Table IA; unit assumed
[21] = system: S. aureus UBMS 88-5 (tetM); assay: MIC, agar dilution; assay type: cell-based; conditions: S. aureus UBMS 88-5 TetM; Table IA; unit assumed
[22] = system: S. aureus IVES 1983 (meth. resistant); assay: MIC, agar dilution; assay type: cell-based; conditions: S. aureus IVES 1983; Table IA; unit assumed
[23] = system: S. aureus UBMS 90-3 (Sensitive); assay: MIC, agar dilution; assay type: cell-based; conditions: S. aureus UBMS 90-3; Table IA; unit assumed
[24] = system: E. coli J3272 TetC; assay: MIC, agar dilution (Table IA); assay type: cell-based; conditions: unit assumed
[25] = system: S. aureus ROSE (MP); assay: MIC, agar dilution (Table IA); assay type: cell-based; conditions: unit assumed
[26] = system: E. coli BAJ9003; assay: MIC, agar dilution (Table IA); assay type: cell-based; conditions: unit assumed
[27] = system: Wild Type S30 extract, E. coli strain MRE600 (tetracycline sensitive); assay: E. coli in vitro transcription and protein translation, 35S-methionine incorporation (Table VIII)
[28] = system: E. faecalis ATCC 29212; assay: MIC, agar dilution; assay type: cell-based; conditions: E. faecalis ATCC 29212; Table IA; unit assumed
[29] = system: S. mariescens FDOR 8733; assay: MIC, agar dilution (Table IA); assay type: cell-based; conditions: unit assumed
[30] = system: Ps. acruginosa ATCC 27853; assay: MIC, agar dilution (Table IA); assay type: cell-based; conditions: unit assumed
[31] = system: E. coli ATCC 25922; assay: MIC, agar dilution; assay type: cell-based; conditions: E. coli ATCC 25922; Table IA; unit assumed
[32] = system: TetM S30 extract, derivative of E. coli MRE600 containing the tetM determinant; assay: E. coli in vitro transcription and protein translation, 35S-methionine incorporation (Table VIII)
[33] = system: E. coli J3272 TetD; assay: MIC, agar dilution (Table IA); assay type: cell-based; conditions: unit assumed
[34] = system: E. coli J2175; assay: MIC, agar dilution (Table IA); assay type: cell-based; conditions: unit assumed
[35] = system: S. aureus SMITH (sens); assay: In vivo antibacterial evaluation, acute lethal infection in mice; conditions: Oral
Text: In Vivo Antibacterial Evaluation (Table VII)

SMILES | Antibacterial activity (MIC) [1] [µg/mL] | Antibacterial activity (MIC) [2] [µg/mL] | Antibacterial activity (MIC) [3] [µg/mL] | Antibacterial activity (MIC) [4] [µg/mL] | Antibacterial activity (MIC) [5] [µg/mL] | Antibacterial activity (MIC) [6] [µg/mL] | Antibacterial activity (MIC) [7] [µg/mL] | Antibacterial activity (MIC) [8] [µg/mL] | Antibacterial activity (MIC) [9] [µg/mL] | Antibacterial activity (MIC) [10] [µg/mL] | Antibacterial activity (MIC) [11] [µg/mL] | Antibacterial activity (MIC) [12] [µg/mL] | Antibacterial activity (MIC) [13] [µg/mL] | Antibacterial activity (MIC) [14] [µg/mL] | Antibacterial activity (MIC) [15] [µg/mL] | Antibacterial activity (MIC) [16] [µg/mL] | Antibacterial activity (MIC) [17] [µg/mL] | Antibacterial activity (MIC) [18] [µg/mL] | Antibacterial activity (MIC) [19] [µg/mL] | Antibacterial activity (MIC) [20] [µg/mL] | further results
CN(C)c1cc(NC(=O)CNC2CC2)c(O)c2c1CC1CC3C(N(C)C)C(O)=C(C(N)=O)C(=O)C3(O)C(O)=C1C2=O.Cl.Cl (stereo not drawn) [QQ, [4S-(4alpha,12aalpha))-9[[(Cyclopropylamino)acetyl)amino]-4,7-Bis(dimethylamino)-1,4,4a,5,5a,6,11,12a-octahydro-3,10,12,12a-tetrahydroxy-1,11-dioxo-2-naphthacenecarboxamide dihydrochloride] | 0.5 | 2 | 0.5 | 0.12 | 2 | 32 | 4 | 2 | 0.5 | 2 | 2 | 1 | 0.5 | 2 | 4 | 2 | 2 | 16 | 0.5 | 0.25 | Antibacterial activity (MIC) [21]: 0.5 µg/mL; Antibacterial activity (MIC) [22]: 8 µg/mL; Antibacterial activity (MIC) [23]: 0.5 µg/mL; Antibacterial activity (MIC) [24]: 8 µg/mL; Antibacterial activity (MIC) [25]: 16 µg/mL; Antibacterial activity (MIC) [26]: 0.25 µg/mL; % INHIBITION Wild Type S30 ([27]; 0.06 mg/ml): 92%; % INHIBITION Wild Type S30 ([27]; 0.2 mg/ml): 97%; % INHIBITION Wild Type S30 ([27]; 1.0 mg/ml): 99%; Antibacterial activity (MIC) [28]: 0.25 µg/mL; Antibacterial activity (MIC) [29]: > 32 µg/mL; Antibacterial activity (MIC) [30]: > 32 µg/mL; Antibacterial activity (MIC) [31]: 2 µg/mL; % INHIBITION TetM S30 ([32]; 0.06 mg/ml): 85%; % INHIBITION TetM S30 ([32]; 0.2 mg/ml): 95%; % INHIBITION TetM S30 ([32]; 1.0 mg/ml): 99%; Antibacterial activity (MIC) [33]: 2 µg/mL; Antibacterial activity (MIC) [34]: 2 µg/mL
CCN(CC)CC(=O)Nc1cc(N(C)C)c2c(c1O)C(=O)C1=C(O)[C@]3(O)C(=O)C(C(N)=O)=C(O)[C@@H](N(C)C)C3CC1C2.Cl.Cl (stereo partly drawn) [RR, [4S-(4alpha,12aalpha))-9-([(Diethylamino)acetyl)amino]-4,7-Bis(dimethylamino)-1,4,4a,5,5a,6,11,12a-octahydro-3,10,12,12a-tetrahydroxy-1,11-dioxo-2-naphthacenecarboxamide dihydrochloride] | 0.25 | 1 | 0.25 | 0.06 | 0.25 | 2 | 0.5 | 0.5 | 0.25 | 0.5 | 1 | 0.25 | 0.12 | 0.5 | 1 | 1 | 1 | 1 | 0.12 | 0.25 | ED50 [35]: 8 to 16 mg/kg; Antibacterial activity (MIC) [21]: 0.25 µg/mL; Antibacterial activity (MIC) [22]: 0.25 µg/mL; Antibacterial activity (MIC) [23]: 0.25 µg/mL; Antibacterial activity (MIC) [24]: 1 µg/mL; Antibacterial activity (MIC) [25]: 1 µg/mL; Antibacterial activity (MIC) [26]: 0.06 µg/mL; % INHIBITION Wild Type S30 ([27]; 0.06 mg/ml): 93%; % INHIBITION Wild Type S30 ([27]; 0.2 mg/ml): 97%; % INHIBITION Wild Type S30 ([27]; 1.0 mg/ml): 99%; Antibacterial activity (MIC) [28]: 0.12 µg/mL; Antibacterial activity (MIC) [29]: 4 µg/mL; Antibacterial activity (MIC) [30]: 32 µg/mL; Antibacterial activity (MIC) [31]: 0.5 µg/mL; % INHIBITION TetM S30 ([32]; 0.06 mg/ml): 90%; % INHIBITION TetM S30 ([32]; 0.2 mg/ml): 97%; % INHIBITION TetM S30 ([32]; 1.0 mg/ml): 99%; Antibacterial activity (MIC) [33]: 0.25 µg/mL; Antibacterial activity (MIC) [34]: 1 µg/mL
CN(C)c1cc(NC(=O)Cn2ccnc2)c(O)c2c1CC1CC3[C@H](N(C)C)C(O)=C(C(N)=O)C(=O)[C@@]3(O)C(O)=C1C2=O.Cl.Cl (stereo partly drawn) [VV, [7S-(7alpha,10aalpha)]-N-[9-(Aminocarbonyl)-4,7-bis(dimethylamino)-5,5a,6,6a,7,10,10a,12-octahydro-1,8,10a,11-tetrahydroxy-10,12-dioxo-2-naphthacenyl]-1H-imidazole-1-acetamide dihydrochloride] | 32 | > 32 | 16 | 4 | > 32 | > 32 | 32 | > 32 | 8 | > 32 | > 32 | > 32 | 8 | > 32 | > 32 | > 32 | > 32 | > 32 | 4 | 4 | Antibacterial activity (MIC) [21]: 32 µg/mL; Antibacterial activity (MIC) [22]: > 32 µg/mL; Antibacterial activity (MIC) [23]: 4 µg/mL; Antibacterial activity (MIC) [24]: > 32 µg/mL; Antibacterial activity (MIC) [25]: > 32 µg/mL; Antibacterial activity (MIC) [26]: 1 µg/mL; % INHIBITION Wild Type S30 ([27]; 0.06 mg/ml): 91%; % INHIBITION Wild Type S30 ([27]; 0.2 mg/ml): 93%; % INHIBITION Wild Type S30 ([27]; 1.0 mg/ml): 99%; Antibacterial activity (MIC) [28]: 4 µg/mL; Antibacterial activity (MIC) [29]: > 32 µg/mL; Antibacterial activity (MIC) [30]: > 32 µg/mL; Antibacterial activity (MIC) [31]: > 32 µg/mL; % INHIBITION TetM S30 ([32]; 0.06 mg/ml): 79%; % INHIBITION TetM S30 ([32]; 0.2 mg/ml): 92%; % INHIBITION TetM S30 ([32]; 1.0 mg/ml): 98%; Antibacterial activity (MIC) [33]: > 32 µg/mL; Antibacterial activity (MIC) [34]: > 32 µg/mL
